Results on 10 compounds are retold here after ChEMBL document CHEMBL1201862, “PubChem BioAssay data set” (2004).

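All cell lines were grown in 96-well plates and treated with compound for 48 hours. GI50 is the concentration that inhibits growth by half.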 Active and inactive are the calls of the source. Cut-off read from the data, not from the text of the source: active = GI50 up to about 1.1 µM and inactive = higher. Bounds are passed on as bounds.

Among the test systems are LOX IMVI; EKVX; SR; OVCAR-8; SK-MEL-28; A549; SF-295; Malme-3M; COLO 205; 786-0; HCT-116; CCRF-CEM; UACC-257; OVCAR-4; KM12; A498.
Holding throughout (test): NCI-60 cell line screen, 48 h

Turning to `Cc1cc2c(C)nn(Cc3ccccc3)c2c(C(=O)O)c1C`, the GI50 in the test on LOX IMVI, in the test on EKVX, with SR, in the test with OVCAR-8, with SK-MEL-28 and with A549 was > 100 µM (inactive) in each case. Besides, the GI50 in the test with SF-295, with Malme-3M, in the test on COLO 205, with 786-0, with HCT-116 and with CCRF-CEM was > 100 µM (inactive) throughout. For the same compound, the GI50 with UACC-257 was > 100 µM (inactive).
On to `COc1ccc(-c2nnc(-c3c(C)n(C)n(-c4ccccc4)c3=O)o2)cc1`, for which the GI50 with OVCAR-4, in the test on LOX IMVI, in the test with EKVX, with KM12, in the test on SR and in the test on OVCAR-8 was > 100 µM (inactive) throughout. Besides, the GI50 in the test on SK-MEL-28, in the test on A549, with A498, in the test with SF-295, in the test on Malme-3M and in the test with COLO 205 was > 100 µM (inactive) in each case. The GI50 with 786-0, in the test with HCT-116, with CCRF-CEM and in the test with UACC-257 was > 100 µM (inactive) each time.
For the compound `Cc1ccc(NC(=O)C(=O)C2C(=O)NC(=O)NC2=O)cc1C`, the GI50 in the test with OVCAR-4, in the test on LOX IMVI, in the test on EKVX, in the test with KM12, in the test with SR and in the test on OVCAR-8 was > 100 µM (inactive) in each case. In addition, the GI50 with SK-MEL-28, in the test with A549, with SF-295, in the test with Malme-3M, in the test on COLO 205 and in the test on 786-0 was > 100 µM (inactive) throughout. Also, the GI50 in the test on HCT-116, in the test on CCRF-CEM and with UACC-257 was > 100 µM (inactive) in each case.
Consider `C[C@H]1CCC2C(CN3CCCCC3)C(=O)OC2[C@]2(C)C(=O)CC(N3CCCCC3)C12O` (some centres undefined), for which the GI50 in the test on EKVX is 4 µM (inactive); with KM12, 3.09 µM (inactive); in the test on SR, 2.49 µM (inactive); in the test on OVCAR-8, 1.79 µM (inactive); in the test with SK-MEL-28, 4.18 µM (inactive); with A549, 28.2 µM (inactive). For the same compound, the GI50 is 4.12 µM (inactive) with A498; 9.1 µM (inactive) with SF-295; 9.44 µM (inactive) in the test with Malme-3M; 4.69 µM (inactive) in the test on COLO 205; 4.54 µM (inactive) in the test on 786-0; 2.94 µM (inactive) in the test with HCT-116. In addition, the GI50 was 2.34 µM (inactive) with CCRF-CEM and 3.1 µM (inactive) with UACC-257.
Take `CCC1CCc2c(OC)ccc(OCC(=O)O)c2C1=O` (centres undefined): the GI50 with OVCAR-4, in the test with LOX IMVI, with EKVX, with KM12, in the test with SR and in the test on OVCAR-8 was > 100 µM (inactive) each time. Also, the GI50 with SK-MEL-28, in the test with A549, in the test on SF-295, in the test on Malme-3M, with COLO 205 and in the test with 786-0 was > 100 µM (inactive) each time. Moreover, the GI50 with CCRF-CEM and in the test on UACC-257 was > 100 µM (inactive) in each case.
For the compound `Cc1cc2c(c(N)c1C)C(=O)c1ccccc1C2=O`, the GI50 is 17.5 µM (inactive) in the test on OVCAR-4; 17.7 µM (inactive) in the test on LOX IMVI; 11.1 µM (inactive) in the test on KM12; > 100 µM (inactive) in the test on SR; 20 µM (inactive) in the test on OVCAR-8; 26.3 µM (inactive) with A549. For the same compound, the GI50 in the test with A498 is 19.7 µM (inactive); with SF-295 it was 27.4 µM (inactive); in the test on Malme-3M, 42.3 µM (inactive); in the test on COLO 205, > 100 µM (inactive); in the test on 786-0 it was 20.2 µM (inactive); with HCT-116 it was 19 µM (inactive). In addition, the GI50 in the test on CCRF-CEM was > 100 µM (inactive); in the test on UACC-257, 87.1 µM (inactive).
Consider `COC(=O)c1onc(-c2c(OC)cc(OC)cc2OC)c1C(=O)OC`, for which the GI50 with OVCAR-4, in the test with LOX IMVI, in the test with EKVX, in the test on KM12, in the test on SR and with OVCAR-8 was > 100 µM (inactive) throughout. The GI50 with SK-MEL-28, in the test on A549, in the test on SF-295, in the test with Malme-3M, in the test on COLO 205 and in the test with 786-0 was > 100 µM (inactive) in each case. For the same compound, the GI50 with HCT-116, in the test with CCRF-CEM and in the test on UACC-257 was > 100 µM (inactive) each time.
In the case of `CC(=O)OC1[C@H]2c3cc4c(cc3CN3CCC(=C[C@@H]1O)C23)OCO4` (some centres undefined), the GI50 in the test with LOX IMVI was > 100 µM (inactive); in the test with EKVX it was 34 µM (inactive); with KM12, 44.4 µM (inactive); in the test with SR it was > 100 µM (inactive); in the test with OVCAR-8, > 100 µM (inactive); in the test on SK-MEL-28, 23.4 µM (inactive). Further, the GI50 in the test on A549 is > 100 µM (inactive); in the test with SF-295 it was 43.6 µM (inactive); in the test on Malme-3M, > 100 µM (inactive); with COLO 205, > 100 µM (inactive); with 786-0, > 100 µM (inactive); in the test with CCRF-CEM it was > 100 µM (inactive). The GI50 in the test on UACC-257 is 46.9 µM (inactive).
Consider `CCCC(=O)OC[n+]1ccc2c(C)c3[nH]c4ccccc4c3c(C)c2c1`, for which the GI50 is 0.706 µM (active) in the test with OVCAR-4; 0.341 µM (active) in the test with LOX IMVI; 0.377 µM (active) with KM12; 0.0681 µM (active) in the test with SR; 0.394 µM (active) in the test on OVCAR-8; 0.317 µM (active) in the test with A549. The GI50 with A498 was 1.34 µM (inactive); in the test with SF-295, 0.43 µM (active); in the test with Malme-3M it was 1.33 µM (inactive); with COLO 205, 0.705 µM (active); in the test with 786-0, 0.305 µM (active); in the test on HCT-116, 0.118 µM (active). Moreover, the GI50 was 1.66 µM (inactive) with CCRF-CEM and 1.35 µM (inactive) with UACC-257.
In the case of `O=C1C2c3[nH]c4ccccc4c3[C@@H]3CCCCCCCCCCC3C2C(=O)N1c1ccccc1` (some centres undefined), the GI50 was 17.6 µM (inactive) in the test with OVCAR-4; 16.1 µM (inactive) with LOX IMVI; 55.1 µM (inactive) in the test on EKVX; 18.2 µM (inactive) in the test on KM12; 12.8 µM (inactive) in the test on SR; 18.1 µM (inactive) with OVCAR-8. Also, the GI50 with SK-MEL-28 is 23.2 µM (inactive); with A549 it was 21.8 µM (inactive); in the test on SF-295, 16.3 µM (inactive); in the test with COLO 205, 23 µM (inactive); in the test with 786-0, 16.1 µM (inactive).
